Results published in PubChem BioAssay (NCI).
“And” between values parts separate entries of the source, which are not always exact repeats. Equal entries are not always repeated.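 In this assay, cells in 96-well plates receive the compound at five concentrations for 48 hours. Endpoints are linearly interpolated between the surrounding concentrations. Abbreviation: GI50, concentration required for 50% inhibition of growth. TGI denotes the concentration required for complete inhibition of growth.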

Columns and labels:
Assay in all cases: DTP human tumour cell line panel, 48 h
BT-549 breast = system: BT-549 breast
CAKI-1 renal = system: CAKI-1 renal
DU-145 prostate = system: DU-145 prostate
HCT-116 colon = system: HCT-116 colon
MALME-3M melanoma = system: MALME-3M melanoma
MDA-MB-435 = system: MDA-MB-435
SF-539 CNS = system: SF-539 CNS
SK-MEL-28 melanoma = system: SK-MEL-28 melanoma
SNB-19 CNS = system: SNB-19 CNS
TK-10 renal = system: TK-10 renal

Row | Structure (SMILES) | TGI (BT-549 breast) | TGI (CAKI-1 renal) | TGI (DU-145 prostate) [µM] | TGI (HCT-116 colon) | TGI (MALME-3M melanoma) [µM] | TGI (MDA-MB-435) [µM] | TGI (SF-539 CNS) | TGI (SK-MEL-28 melanoma) [µM] | TGI (SNB-19 CNS) [µM] | TGI (TK-10 renal) [µM] | GI50 (BT-549 breast) | GI50 (CAKI-1 renal) | GI50 (DU-145 prostate) [µM] | GI50 (HCT-116 colon) | GI50 (MALME-3M melanoma) [nM] | GI50 (MDA-MB-435) [nM] | GI50 (SF-539 CNS) | GI50 (SK-MEL-28 melanoma) [nM] | GI50 (SNB-19 CNS) [nM] | GI50 (TK-10 renal) [nM]
1 | CCOP(=O)(OCC)C(F)(F)c1ccc(CC(NC(=O)OC(C)(C)C)C(=O)O)cc1 (stereo not given) | > 10 µM | > 10 µM | > 10 | > 10 µM | > 10 | > 10 | > 10 µM | > 10 | > 10 | > 10 |  |  |  |  |  |  |  |  |  | 
2 | Cc1ccc(-c2csc(=Nc3ccccc3)n2NC(=O)c2ccncc2)cc1 | > 91.8 µM | > 100 µM | > 100 | > 100 µM | > 100 | > 100 | > 100 µM | > 100 | > 100 | > 100 |  |  |  |  |  |  |  |  |  | 
3 | CC(C)c1cc2c(cc1S(=O)(=O)O)[C@@]1(C)CCC[C@@](C)(C(=O)O)C1CC2 (stereo not given in full) | > 100 µM | > 100 µM | > 100 | > 100 µM | > 100 | > 100 | > 100 µM | > 100 | > 100 | > 100 |  |  |  |  |  |  |  |  |  | 
4 | O=S(=O)(c1ccccc1)c1cccc2c1NCCC2 | 83 µM | > 100 µM | > 100 | > 100 µM | > 100 | > 100 | > 100 µM | > 100 | > 100 | > 100 |  |  |  |  |  |  |  |  |  | 
5 | CCCCCC1=CC(=O)C1(Cl)Cl | 56.8 µM | 23.3 µM | 26.1 | 28.4 µM | 27.4 | 33 | 38.9 µM | 36.8 | > 67.3 | 20.8 |  |  |  |  |  |  |  |  |  | 
6 | CC(=O)Oc1cccc2c1C(=O)CCCC2 | > 100 µM | > 100 µM | > 100 | > 100 µM | > 100 | > 100 | > 100 µM | > 100 | > 100 | > 100 |  |  |  |  |  |  |  |  |  | 
7 | COC(=O)C1=C(C(=O)OC)SC(=C2SCSC3=C2SC(C(=O)OC)=C(C(=O)OC)C32SC3=C(CCCC3)S2)S1 | > 100 µM | > 100 µM | > 100 | > 100 µM | > 100 | > 100 | > 100 µM | > 100 | > 100 | > 100 |  |  |  |  |  |  |  |  |  | 
8 | Cc1cccc(Cn2c3c(c4cc(O)ccc42)C(=O)c2ccccc2C3=O)c1 | > 86.7 µM | > 100 µM | > 100 | > 100 µM | > 100 | > 100 | 26.9 µM | > 100 | > 100 | > 100 |  |  |  |  |  |  |  |  |  | 
9 | CCC(=O)NCC1CCCN2CCCCC12 (stereo not given) | > 100 µM | > 100 µM | > 100 | > 100 µM | > 100 | > 100 | > 100 µM | > 100 | > 100 | > 100 |  |  |  |  |  |  |  |  |  | 
10 | COc1ccc(CN2C(=O)/C(=C\c3cc(OC)c(OC)c(OC)c3)c3ccccc32)cc1 | 7.53 µM | 20.3 µM | 6.98 | 3.05 µM | 3.3 | 5.08 | 4.33 µM | 3.74 | 3.56 | 4.33 | 1.08 µM | 2.63 µM | 2.32 | 1.61 µM | 562 | 2090 | 2.17 µM | 1820 | 1810 | 1140
11 | O=C(/C=C/c1ccc2c(c1)OCO2)c1ccc(O)cc1 | 27.4 µM | 28.7 µM | 30.1 | 26.2 µM | 28.6 | 34.1 | 32.5 µM | 41.1 | 30.5 | 33.1 |  |  |  |  |  |  |  |  |  | 
12 | COc1ccc(-c2[nH]c3c4c(nc5c(c24)C(=O)CC(C)(C)C5)CC(C)(C)C3)cc1 | > 100 µM | > 100 µM | > 100 | > 100 µM | > 100 | > 100 | > 100 µM | > 100 | > 100 | > 100 |  |  |  |  |  |  |  |  |  | 
13 | CC(=O)N(C(=O)CC(=O)N1N=C(c2ccccc2)C(N=Nc2ccccc2[N+](=O)[O-])C1=O)c1ccc(Cl)cc1 (stereo not given) | > 10 µM | > 10 µM | > 10 | > 10 µM | > 10 | > 10 | > 10 µM | > 10 | > 10 | > 10 |  |  |  |  |  |  |  |  |  | 
14 | Cc1cc(C)nc(NS(=O)(=O)c2ccc(NC(=O)c3ccc4nc5ccccc5c(Nc5ccc(S(N)(=O)=O)cc5)c4c3)cc2)n1 | > 100 µM | > 100 µM | > 100 | > 100 µM | > 100 | > 100 | > 100 µM | > 100 | > 100 | > 100 |  |  |  |  |  |  |  |  |  | 
15 | Nc1nccc(-c2c[nH]c3cc(Br)ccc23)n1 | > 100 µM | 35 µM | > 100 | 40.2 µM | > 100 | 80.4 | > 100 µM | 86.8 | 47.5 | 59 |  |  |  |  |  |  |  |  |  | 
16 | Cc1ccc(NC(=O)c2ccc(OP(=O)(O)Nc3ccc(C)cc3)cc2)cc1 | > 100 µM | > 100 µM | > 100 | > 100 µM | > 100 | > 100 | > 100 µM | > 100 | > 100 | > 100 |  |  |  |  |  |  |  |  |  | 
17 | Cc1ccc(-c2cc(-c3ccco3)c(C#N)c(=S)n2C2OC(CO)C(O)C(O)C2O)cc1 (stereo not given) | 78.5 µM and > 100 µM | 46.9 µM and > 100 µM | > 100 | 18.5 µM and > 100 µM | > 100 | > 100 | 28 µM and > 100 µM | > 100 | > 100 | > 100 | 18.2 µM and 57.3 µM | 17.6 µM and > 100 µM | 30.3 | 4.91 µM and 25.3 µM |  |  | 11.5 µM and 37.2 µM |  |  | 
